Where two headings read alike, the source gives them in different places.

Consider six compounds from patent US9808477B2 (Macau University of Science and Technology, priority 2015, dated 2017).

What all share (assay type): cell-based, human
In series [1] the test system is A2780/T cells (PTX-resistant, ABCB1-overexpressing ovarian cancer cells). Put plainly: cells. Particulars: for IC50: read-out: IC50 ± SD. The procedure: (§1) Sulphorhodamine B (SRB) assays were used for cell density determination, based on sensitive measure of total cellular protein, which perform similarly compared with other proliferation assays such as MTT assay. Briefly, cells were seeded into flat bottomed 96-well plates at an initial density of 7.5×10^3 per well before treatment. […] After removing the medium, cells were fixed in 10% trichloroacetic acid for 1 h at 4° C. and then washed with water five times. 0.4% SRB dissolved in 1% v/v acetic acid was added and incubated […] for staining. The cells were quickly washed with 1% acetic acid and left to dry overnight. The protein bound SRB was solubilized by adding 200 μl 10 mM Tris buffer per well and was measured at wavelengths 490 nm using a plate reader (Spectra MAX 250; Molecular Devices, Sunnyvale, Calif.). The optical density of SRB in each well is directly proportional to the cell number.

For series [2], the system named is A549/T cells (PTX-resistant, ABCB1-overexpressing NSCLC cells). Put plainly: SRB cell cytotoxicity / MDR reversal assay. The note with it: for fold reversal: drug alone (reference). The procedure: as §1
The subject of another series is A2780 cells. Put plainly: Cell cycle analysis (PI, flow cytometry). The note with it: A2780, PTX 0.01 μM.
Series [3] has as its system A2780/T cells. Put plainly: Colony formation assay. Particulars: 9 μM nobiletin alone or 0.94 μM PTX alone, 12 days. From the text:
The A2780/T cells were trypsinized and plated in fresh culture medium at a density of 600 cells/9.6 cm^2 plate. Subsequently, the cells were fixed with 70% ethanol and stained with crystal violet (0.5% in ethanol). The plates were rinsed with phosphate buffered saline (PBS), and the colony numbers were counted using the software of Quantity one-Colony counting.

Series [4] relates to A2780/T cells. Put plainly: Apoptosis analysis by Annexin-V/PI double staining. The note with it: 9 μM nobiletin alone or 0.94 μM PTX alone. The procedure:
After treatment, 1×10^6 cells were collected, washed and suspended in 100 μl of binding buffer (10 mM N-2-hydroxyethylpiperazine-N,-2-ethanesulfonic acid/NaOH, 140 mM NaCl, 2.5 mM CaCl2, pH 7.4). Apoptotic cells were identified by double supravital staining with 5 μl recombinant FITC (fluorescein isothiocyanate)-conjugated Annexin-V and 5 μl PI (50 μg/ml). The cells were stained for […] at room temperature in the dark, and analyzed by fluorescence-activated cell sorting cater-plus flow cytometry. Data acquisition and analysis were performed in BD FACS Aria with FlowJo software.

Series [5] relates to A2780/T cells. Put plainly: Cell cycle analysis (PI, flow cytometry). Particulars: 0.94 μM PTX, no nobiletin. The procedure:
A2780/T cells were harvested 24 hours, 48 hours, or 72 hours after treatment and washed twice with ice-cold PBS. The cells were fixed and permeabilized with 70% ice-cold ethanol overnight at 4° C. or 2 h at −20° C. After one additional wash in PBS, cells were stained with a staining solution containing propidium iodide (PI) ([…]) and RNase A (250 μg/ml) for 30 min at room temperature. They were then pelleted, washed and suspended in PBS to a final concentration of 1×10^6/ml and analyzed by flow cytometry BD FACS Aria (BD Biosciences, San Jose, Calif.).

Series [6] relates to A2780/T cells. The experiment in a line: Combination index, Chou-Talalay method (CalcuSyn). Particulars: Homo sapiens, A2780, read-out: Dose PTX at Fa = 0.5 (ED50), CalcuSyn simulation, A2780/T; PTX dose, alone or in the combination.
Series [7] deals with A2780/T cells. The experiment in a line: Intracellular accumulation of doxorubicin and Flutax-2. Particulars: 8 h, 4.5 μM nobiletin or 20 μM QND.
The mark [8] stands for this setting: A2780/T, 48 h, drug +0.5 μM nobiletin (N).
Where [9] appears, read: A2780/T, 48 h, drug +1.5 μM nobiletin (N).
Setting [10] is: A2780/T, 48 h, drug +4.5 μM nobiletin (N).
Setting [11] is: Homo sapiens, A2780, 48 h, A2780/T, 48 h, SRB, drug alone (no nobiletin).
[12] abbreviates: Homo sapiens, A549, 48 h, 48 h, SRB, drug alone (no nobiletin).

As for `O=c1[nH]cc(F)c(=O)[nH]1` [5-Fluorouracil], the fold reversal in series [1] and in series [2] was 1.00 fold in each case. The IC50 was found to be 132 ± 23.8 µM in series [1] (setting [8]); 79.8 ± 9.18 µM in series [1] (setting [9]); 26.1 ± 1.77 µM in series [1] (setting [10]); 159 ± 18.3 µM in series [1] (setting [11]); 134 ± 10.9 µM in series [2] (setting [12]); 16.8 ± 1.36 µM in series [2] (drug +4.5 μM nobiletin (N)). The “Fold reversal (IC50 without / with nobiletin)” value is recorded as 1.26 ± 0.01 fold in series [2] (drug +0.5 μM nobiletin); 1.99 ± 0.01 fold in series [2] (drug +1.5 μM nobiletin); 7.94 ± 0.02 fold in series [2] (drug +4.5 μM nobiletin); 7.94 fold in series [2] (drug +4.5 μM nobiletin, listed as 5-fluorouracil).

`COc1cccc2c1C(=O)c1c(O)c3c(c(O)c1C2=O)C[C@@](O)(C(C)=O)C[C@@H]3O[C@H]1C[C@H](N)[C@H](O)[C@H](C)O1` [Daunorubicin]: the fold reversal in series [1] and in series [2] was 1.00 fold in each case. Further, the half-inhibitory concentration (IC50) was 11.9 ± 0.97 µM in series [1] (Homo sapiens, A2780, 48 h); 10.1 ± 1.63 µM in series [2] (setting [12]); 5.97 ± 0.49 µM in series [2] (drug +0.5 μM nobiletin (N)); 2.84 ± 0.46 µM in series [2] (drug +1.5 μM nobiletin (N)); 0.71 ± 0.13 µM in series [2] (drug +4.5 μM nobiletin (N)). The “Fold reversal (IC50 without / with nobiletin)” value in series [2] (drug +0.5 μM nobiletin) stood at 1.68 ± 0.14 fold; in series [2] (drug +1.5 μM nobiletin), 3.55 ± 0.01 fold; in series [2] (drug +4.5 μM nobiletin), 14.17 ± 0.04 fold; in series [2] (drug +4.5 μM nobiletin, listed as daunorubicin), 14.17 fold.

Take `CC(=O)O[C@@]12CO[C@@H]1C[C@H](O)[C@@]1(C)C(=O)[C@H](O)C3=C(C)[C@@H](OC(=O)[C@H](O)[C@@H](NC(=O)OC(C)(C)C)c4ccccc4)C[C@@](O)([C@@H](OC(=O)c4ccccc4)[C@H]21)C3(C)C` [Docetaxel]: the fold reversal in series [1] and in series [2] was 1.00 fold each time. For the same compound, the half-inhibitory concentration (IC50) in series [1] (setting [8]) worked out at 8.97 ± 1.46 µM; in series [1] (setting [10]), 1.13 ± 0.18 µM; in series [1] (setting [11]) it was 17.9 ± 2.89 µM; in series [1] (Homo sapiens, A2780, 48 h, A2780/T, 48 h, drug +1.5 μM nobiletin (N)), 3.57 ± 0.58 µM; in series [2] (setting [12]), 13.4 ± 1.09 µM; in series [2] (drug +0.5 μM nobiletin (N)), 8.43 ± 0.69 µM. Also, the results for the half-inhibitory concentration (IC50) in series [2] (drug +1.5 μM nobiletin (N)) and in series [2] (drug +4.5 μM nobiletin (N)) were 2.67 ± 0.22 µM and 0.71 ± 0.11 µM, respectively. Besides, the “Fold reversal (IC50 without / with nobiletin)” value came out at 1.59 ± 0.01 fold in series [2] (drug +0.5 μM nobiletin); 5.05 ± 0.82 fold in series [2] (drug +1.5 μM nobiletin); 19.18 ± 4.59 fold in series [2] (drug +4.5 μM nobiletin); 19.18 fold in series [2] (drug +4.5 μM nobiletin, listed as docetaxel).

Regarding `COc1cccc2c1C(=O)c1c(O)c3c(c(O)c1C2=O)C[C@@](O)(C(=O)CO)C[C@@H]3O[C@H]1C[C@H](N)[C@H](O)[C@H](C)O1` [Doxorubicin], the “degree of resistance: mean IC50 in A2780/T cells relative to A2780” value in series [1] is on record as 158 fold. The fold reversal in series [1] and in series [2] was 1.00 fold in each case. The half-maximal inhibitory concentration (IC50) came out at 3.77 ± 0.3 µM in series [1] (setting [8]); 1.89 ± 0.16 µM in series [1] (setting [9]); 1.13 ± 0.18 µM in series [1] (setting [10]); 0.38 ± 0.04 µM in series [1] (A2780/T, 48 h, drug +9 μM nobiletin (N)); 5.97 ± 0.49 µM in series [1] (setting [11]); 5.97 ± 0.49 µM in series [2] (setting [12]). Moreover, the 50% inhibitory concentration (IC50) was 4.23 ± 0.35 µM in series [2] (drug +0.5 μM nobiletin (N)), 2.67 ± 0.22 µM in series [2] (drug +1.5 μM nobiletin (N)) and 1.19 ± 0.1 µM in series [2] (drug +4.5 μM nobiletin (N)). The “Fold reversal (IC50 without / with nobiletin)” value in series [2] (drug +0.5 μM nobiletin) is on record as 1.42 ± 0.23 fold; in series [2] (drug +1.5 μM nobiletin) it was 2.25 ± 0.37 fold; in series [2] (drug +4.5 μM nobiletin) it was 5.01 ± 0.01 fold; in series [2] (drug +4.5 μM nobiletin, listed as doxorubicin), 5.01 fold.

Turning to `CC(=O)O[C@H]1C(=O)[C@@]2(C)[C@H]([C@H](OC(=O)c3ccccc3)[C@]3(O)C[C@H](OC(=O)[C@H](O)[C@@H](NC(=O)c4ccccc4)c4ccccc4)C(C)=C1C3(C)C)[C@]1(OC(C)=O)CO[C@@H]1C[C@@H]2O` [Paclitaxel], the G1 phase content in the series on A2780 cells (24 hours) is reported as 46.47%; in the series with A2780 cells (48 hours) it was 15.57%; with A2780 cells (72 hours), 5.53%. Also, the G2-M content is 31.9% in the series on A2780 cells (24 hours), 63.2% with A2780 cells (48 hours) and 80.07% with A2780 cells (72 hours). The “inhibition of colony formation, single agent” value in the series with A2780/T cells [3] is “no inhibition”. Moreover, the “degree of resistance: mean IC50 in A2780/T cells relative to A2780” value in series [1] is recorded as 501 fold. Further, the fold reversal in series [1] and in series [2] was 1.00 fold throughout. Further, the IC50 in series [1] (Homo sapiens, A2780, 48 h) stood at 2.51 µM; in series [2] (setting [12]), 1.89 ± 0.15 µM; in series [2] (drug +0.5 μM nobiletin (N)) it was 0.75 ± 0.06 µM; in series [2] (drug +1.5 μM nobiletin (N)), 0.34 ± 0.02 µM; in series [2] (drug +4.5 μM nobiletin (N)) it was 0.09 ± 0.01 µM; in series [2] (drug +9 μM nobiletin (N)), 0.03 ± 0.004 µM. Also, the “apoptosis induction, single treatment” value in the series on A2780/T cells [4] is “did not show apoptosis induction”. Further, the “Fold reversal (IC50 without / with nobiletin)” value stood at 2.51 ± 0.01 fold in series [2] (drug +0.5 μM nobiletin); 2.51 fold in series [2] (drug +0.5 μM nobiletin, listed as PTX); 5.65 ± 0.8 fold in series [2] (drug +1.5 μM nobiletin); 5.65 fold in series [2] (drug +1.5 μM nobiletin, listed as PTX); 22.33 ± 3.6 fold in series [2] (drug +4.5 μM nobiletin); 22.33 fold in series [2] (drug +4.5 μM nobiletin, listed as PTX). Also, the “Fold reversal (IC50 without / with nobiletin)” value in series [2] (drug +4.5 μM nobiletin, listed as paclitaxel) was found to be 22.33 fold; in series [2] (drug +9 μM nobiletin), 62.88 ± 0.98 fold; in series [2] (drug +9 μM nobiletin, listed as PTX), 62.88 fold. Besides, the G1 phase cells in the series with A2780/T cells [5] was determined as 72%. Besides, in the series on A2780/T cells [5], the G2 phase cells stood at 17%. Moreover, in the series on A2780/T cells [6], the EC50 is 4.2 µM.

For the compound `C=C[C@H]1C[N@@]2CC[C@H]1C[C@@H]2[C@@H](O)c1ccnc2ccc(OC)cc12` [QND, quinidine], in the series on A2780/T cells [7] (5 μM DOX), the “intracellular accumulation of DOX” value is “higher than that in untreated A2780/T”. The “intracellular accumulation of Flutax-2” value with A2780/T cells [7] (Flutax-2 1 μM) is on record as “higher than that in untreated A2780/T”.
